Tests used:
[1] = test system: crabgrass; experiment: Test B pre/postemergence crabgrass; type: in vivo, Digitaria sanguinalis
How it was run: (§1)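 Herbicidal effect was estimated by eye on a ten-point control scale after plants spent twelve to sixteen days in a greenhouse following soil or foliar treatment. Foliar sprays targeted plants at one to four leaves; all doses were formulated in a non-phytotoxic solvent with surfactant.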

[2] = test system: purple nutsedge; experiment: Test B pre/postemergence purple nutsedge; type: in vivo, Cyperus rotundus
How it was run: as §1

[3] = test system: bamyardgrass; experiment: Test B flood test barnyardgrass; type: in vivo, Echinochloa crus-galli
How it was run: (§2)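 Read-out is a visual response score from 0 (no effect) to 10 (complete control), assigned by comparison with untreated controls. Treatment was applied at the 2-leaf stage, and plants stayed in the greenhouse for twelve to sixteen days before scoring.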

[4] = test system: duck salad; experiment: Test B flood test duck salad; type: in vivo, Heteranthera limosa
How it was run: as §2

[5] = test system: corn; experiment: Test B pre/postemergence corn; type: in vivo, Zea mays
How it was run: as §1

[6] = test system: wheat; experiment: Test B pre/postemergence wheat; type: in vivo, Triticum aestivum
How it was run: as §1

[7] = test system: cocklebur; experiment: Test B pre/postemergence cocklebur; type: in vivo, Xanthium strumarium
How it was run: as §1

[8] = test system: soybean; experiment: Test B pre/postemergence soybean; type: in vivo, Glycine max
How it was run: as §1

[9] = test system: rice; experiment: Test B flood test rice; type: in vivo, Oryza sativa
How it was run: as §2

[10] = test system: rape; experiment: Test B pre/postemergence rape; type: in vivo, Brassica napus
How it was run: as §1

[11] = test system: blackgrass; experiment: Test B pre/postemergence blackgrass; type: in vivo, Alopecurus myosuroides
How it was run: as §1

[12] = test system: bedstraw; experiment: Test B pre/postemergence bedstraw; type: in vivo, Galium aparine
How it was run: as §1

[13] = test system: surinam grass; experiment: Test B pre/postemergence surinam grass; type: in vivo, Brachiaria decumbens
How it was run: as §1

[14] = test system: wild oat; experiment: Test B pre/postemergence wild oat; type: in vivo, Avena fatua
How it was run: as §1

[15] = test system: smallflower flatsedge; experiment: Test B flood test smallflower flatsedge; type: in vivo, Cyperus difformis
How it was run: as §2

[16] = test system: velvetleaf; experiment: Test B pre/postemergence velvetleaf; type: in vivo, Abutilon theophrasti
How it was run: as §1

[17] = test system: sugar beet; experiment: Test B pre/postemergence sugar beet; type: in vivo, Beta vulgaris
How it was run: as §1

[18] = Preemergence, Rate 62 g/ha, scale of 0 to 10 where 0 is no effect and 10 is complete control
[19] = Preemergence, Rate 125 g/ha, 0 is no effect, 10 is complete control
[20] = Preemergence, Rate 250 g/ha, scale 0 to 10, 0 is no effect, 10 is complete control
[21] = Preemergence, Rate 500 g/ha, scale 0 to 10 (0 no effect, 10 complete control)
[22] = Rate 62 g/ha, Postemergence, scale of 0 to 10 where 0 is no effect and 10 is complete control
[23] = Rate 125 g/ha, Postemergence, scale 0 to 10
[24] = Rate 500 g/ha, Postemergence, scale 0 to 10
[25] = Rate 62 g/ha, headed Pre-emergence (flood test species), scale 0 to 10 (0 no effect, 10 complete control)
[26] = Rate 125 g/ha, Pre-emergence, flood test species, scale 0 to 10 where 0 is no effect and 10 is complete control
[27] = Rate 250 g/ha, Pre-emergence, flood-test species, scale 0 to 10, 0 is no effect, 10 is complete control
[28] = Rate 500 g/ha, headed Pre-emergence (flood test species), scale 0 to 10 (0 no effect, 10 complete control)

Cc1nc(C)c(Cn2c(=O)on(C(=O)N(c3ccc(Cl)cc3)C(C)C)c2=O)s1 [Compound 191]
6: Crabgrass plant response rating [1, 24] | Blackgrass plant response rating [11, 21]
0: Crabgrass plant response rating [1, 18] | Nutsedge plant response rating [2, 18] | Nutsedge plant response rating (0 to 10 scale) [2, 19] | Nutsedge plant response rating [2, 20] | Nutsedge plant response rating [2, 21] | Nutsedge plant response rating [2, 22] | Nutsedge plant response rating [2, 23] | Plant response rating (0 to 10; 0 is no effect, 10 is complete control), Nutsedge ([2]; Rate 250 g/ha, Postemergence) | Nutsedge plant response rating [2, 24] | Barnyardgrass plant response rating [3, 25] | Barnyardgrass plant response rating [3, 26] | Barnyardgrass plant response rating [3, 27] | Plant response rating, Barnyardgrass [3, 28] | Ducksalad plant response rating [4, 25] | Ducksalad plant response rating [4, 26] | Ducksalad plant response rating [4, 27] | Plant response rating, Ducksalad [4, 28] | Corn plant response rating [5, 18] | Corn plant response rating (0 to 10 scale) [5, 19] | Corn plant response rating [5, 20] | Corn plant response rating [5, 21] | Corn plant response rating [5, 22] | Corn plant response rating [5, 23] | Plant response rating (0 to 10; 0 is no effect, 10 is complete control), Corn ([5]; Rate 250 g/ha, Postemergence) | Corn plant response rating [5, 24] | Wheat plant response rating [6, 18] | Wheat plant response rating [6, 20] | Wheat plant response rating [6, 22] | Wheat plant response rating [6, 23] | Plant response rating (0 to 10; 0 is no effect, 10 is complete control), Wheat ([6]; Rate 250 g/ha, Postemergence) | Cocklebur plant response rating [7, 18] | Cocklebur plant response rating (0 to 10 scale) [7, 19] | Cocklebur plant response rating [7, 20] | Cocklebur plant response rating [7, 21] | Soybean plant response rating [8, 18] | Soybean plant response rating (0 to 10 scale) [8, 19] | Soybean plant response rating [8, 20] | Soybean plant response rating [8, 21] | Rice plant response rating [9, 25] | Rice plant response rating [9, 26] | Rice plant response rating [9, 27] | Plant response rating, Rice [9, 28] | Rape plant response rating [10, 18] | Rape plant response rating (0 to 10 scale) [10, 19] | Rape plant response rating [10, 20] | Rape plant response rating [10, 21] | Rape plant response rating [10, 22] | Rape plant response rating [10, 23] | Plant response rating (0 to 10; 0 is no effect, 10 is complete control), Rape ([10]; Rate 250 g/ha, Postemergence) | Rape plant response rating [10, 24] | Blackgrass plant response rating [11, 18] | Blackgrass plant response rating (0 to 10 scale) [11, 19] | Blackgrass plant response rating [11, 22] | Blackgrass plant response rating [11, 23] | Plant response rating (0 to 10; 0 is no effect, 10 is complete control), Blackgrass ([11]; Rate 250 g/ha, Postemergence) | Bedstraw plant response rating [12, 18] | Bedstraw plant response rating (0 to 10 scale) [12, 19] | Bedstraw plant response rating [12, 20] | Bedstraw plant response rating [12, 21] | Bedstraw plant response rating [12, 22] | Bedstraw plant response rating [12, 23] | Plant response rating (0 to 10; 0 is no effect, 10 is complete control), Bedstraw ([12]; Rate 250 g/ha, Postemergence) | Bedstraw plant response rating [12, 24] | B. signalgrass plant response rating [13, 18] | B. signalgrass plant response rating (0 to 10 scale) [13, 19] | B. signalgrass plant response rating [13, 20] | B. signalgrass plant response rating [13, 22] | B. signalgrass plant response rating ([13]; Rate 125 g/ha, Postemergence, scale 0 (no effect) to 10 (complete control)) | Plant response rating, B. signalgrass ([13]; Rate 250 g/ha, Postemergence, scale 0 to 10, 0 is no effect, 10 is complete control) | Wild oats plant response rating [14, 22] | Wild oats plant response rating [14, 23] | Plant response rating (0 to 10; 0 is no effect, 10 is complete control), Wild oats ([14]; Rate 250 g/ha, Postemergence) | S. Flatsedge plant response rating [15, 25] | S. Flatsedge plant response rating [15, 26] | S. Flatsedge plant response rating [15, 27] | S. Flatsedge plant response rating ([15]; Rate 500 g/ha, Pre-emergence, flood test species, scale 0 to 10 (0 no effect, 10 complete control)) | Velvetleaf plant response rating [16, 18] | Velvetleaf plant response rating [16, 20] | Velvetleaf plant response rating [16, 21] | Velvetleaf plant response rating [16, 22] | Velvetleaf plant response rating [16, 23] | Sugarbeets plant response rating [17, 18] | Sugarbeets plant response rating (0 to 10 scale) [17, 19] | Sugarbeets plant response rating [17, 20] | Sugarbeets plant response rating [17, 21] | Sugarbeets plant response rating [17, 22] | Sugarbeets plant response rating [17, 23] | Plant response rating (0 to 10; 0 is no effect, 10 is complete control), Sugarbeets ([17]; Rate 250 g/ha, Postemergence) | Sugarbeets plant response rating [17, 24]
8: Crabgrass plant response rating [1, 20] | Crabgrass plant response rating [1, 21]
1: Cocklebur plant response rating [7, 22] | B. signalgrass plant response rating ([13]; Rate 500 g/ha, Postemergence, scale 0 to 10, 0 no effect, 10 complete control)
7: Wild oats plant response rating [14, 21]
2: Crabgrass plant response rating [1, 22] | Crabgrass plant response rating [1, 23] | Wheat plant response rating [6, 21] | Cocklebur plant response rating [7, 23] | Plant response rating (0 to 10; 0 is no effect, 10 is complete control), Cocklebur ([7]; Rate 250 g/ha, Postemergence) | Plant response rating (0 to 10; 0 is no effect, 10 is complete control), Velvetleaf ([16]; Rate 250 g/ha, Postemergence)
3: Crabgrass plant response rating (0 to 10 scale) [1, 19] | Plant response rating (0 to 10; 0 is no effect, 10 is complete control), Crabgrass ([1]; Rate 250 g/ha, Postemergence) | Cocklebur plant response rating [7, 24] | Soybean plant response rating [8, 22] | Soybean plant response rating [8, 23] | Plant response rating (0 to 10; 0 is no effect, 10 is complete control), Soybean ([8]; Rate 250 g/ha, Postemergence) | Blackgrass plant response rating [11, 24] | B. signalgrass plant response rating [13, 21] | Wild oats plant response rating [14, 20]
4: Soybean plant response rating [8, 24] | Blackgrass plant response rating [11, 20]
